In patent US20260241012A1, “1,8-NAPHTHYRIDIN-2-ONE HETEROBIFUNCTIONAL BCL6 DEGRADERS” (Treeline Biosciences, Inc., priority 2022, published 2026):

Biological target: T1, N-terminal HiBiT tagged BCL6 (Homo sapiens, UniProt P41182)
T1 construct: expressed in transfected cells; host or cells: HT1080 (ATCC CCL-121), stably transduced with lentivirus pLV-UBC-N-HiBiT-BCL6-PGK-puro
Test: HiBiT based degradation assay
Assay type: cell-based
Conditions: HT1080 cells expressing N-terminal HiBiT tagged BCL6, 5 hours of incubation; for Ymin (5 hr): BCL6 degradation normalized with DMSO control; for DC50: four-parameter logistic model, read-out: EC50 (5 hr)
Summary of the method: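 Degradation measured by luminescence from the Nano-Glo HiBiT lytic reagent (15 min, room temperature), normalized to DMSO controls and fitted to a four-parameter curve.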

Ymin (5 hr) | DC50 | SMILES
++++ (Ymin < 30%) | 10 to 100 nM | CNC(=O)COc1cc2cc(Nc3nc(N4CCC(CN5CCN(c6cccc7c(C8CCC(=O)NC8=O)nn(C)c67)C[C@H]5C)CC4)ncc3Cl)cnc2n(C(C)C)c1=O (stereo partly drawn) [Compound 192b, 2-[[6-[[5-chloro-2-[4-[[(2R)-4-[3-(2,6-dioxo-3-piperidyl)-1-methyl-indazol-7-yl]-2-methyl-piperazin-1-yl]methyl]-1-piperidyl]pyrimidin-4-yl]amino]-1-isopropyl-2-oxo-1,8-naphthyridin-3-yl]oxy]-N-methyl-acetamide]
+++ (30% ≤ Ymin < 50%) | < 10 nM | CNC(=O)COc1cc2cc(Nc3nc(N4CCC(CN5CCN(c6ccc7c(C8CCC(=O)NC8=O)nn(C)c7c6)CC5(C)C)CC4)ncc3Cl)cnc2n(C(C)C)c1=O (centres unmarked) [Compound 196, 2-((6-((5-chloro-2-(4-((4-(3-(2,6-dioxopiperidin-3-yl)-1-methyl-1H-indazol-6-yl)-2,2-dimethylpiperazin-1-yl)methyl)piperidin-1-yl)pyrimidin-4-yl)amino)-1-isopropyl-2-oxo-1,2-dihydro-1,8-naphthyridin-3-yl)oxy)-N-methylacetamide]
+++ (30% ≤ Ymin < 50%) | 10 to 100 nM | CNC(=O)COc1cc2cc(Nc3nc(N4CCC(CN5[C@H](C)CN(c6cccc7c(C8CCC(=O)NC8=O)nn(C)c67)C[C@@H]5C)CC4)ncc3Cl)cnc2n(C(C)C)c1=O (stereo partly drawn) [Compound 197a, 2-[[6-[[5-chloro-2-[4-[[(2R,6S)-4-[3-(2,6-dioxo-3-piperidyl)-1-methyl-indazol-7-yl]-2,6-dimethyl-piperazin-1-yl]methyl]-1-piperidyl]pyrimidin-4-yl]amino]-1-isopropyl-2-oxo-1,8-naphthyridin-3-yl]oxy]-N-methyl-acetamide]
++++ (Ymin < 30%) | 10 to 100 nM | CNC(=O)COc1cc2cc(Nc3nc(N4CCC(CN5[C@@H](C)CN(c6cccc7c(C8CCC(=O)NC8=O)nn(C)c67)C[C@@H]5C)CC4)ncc3Cl)cnc2n(C(C)C)c1=O (stereo partly drawn) [Compound 197b, 2-[[6-[[5-chloro-2-[4-[[(2S,6S)-4-[3-(2,6-dioxo-3-piperidyl)-1-methyl-indazol-7-yl]-2,6-dimethyl-piperazin-1-yl]methyl]-1-piperidyl]pyrimidin-4-yl]amino]-1-isopropyl-2-oxo-1,8-naphthyridin-3-yl]oxy]-N-methyl-acetamide]
++ (50% ≤ Ymin < 70%) | 10 to 100 nM | CNC(=O)COc1cc2cc(Nc3nc(N4CC5(CCC(Nc6ccc(F)c7c(C8CCC(=O)NC8=O)nn(C)c67)CC5)C4)ncc3Cl)cnc2n(C(C)C)c1=O (centres unmarked) [Compound 198, 2-[[6-[[5-chloro-2-[7-[[3-(2,6-dioxo-3-piperidyl)-4-fluoro-1-methyl-indazol-7-yl]amino]-2-azaspiro[3.5]nonan-2-yl]pyrimidin-4-yl]amino]-1-isopropyl-2-oxo-1,8-naphthyridin-3-yl]oxy]-N-methyl-acetamide]
++++ (Ymin < 30%) | < 10 nM | CNC(=O)COc1cc2cc(Nc3nc(N4CCC5(CCC(Nc6ccc7c(C8CCC(=O)NC8=O)nn(C)c7c6)CC5)CC4)ncc3Cl)cnc2n(C(C)C)c1=O (centres unmarked) [Compound 199, 2-[[6-[[5-chloro-2-[9-[[3-(2,6-dioxo-3-piperidyl)-1-methyl-indazol-6-yl]amino]-3-azaspiro[5.5]undecan-3-yl]pyrimidin-4-yl]amino]-1-isopropyl-2-oxo-1,8-naphthyridin-3-yl]oxy]-N-methyl-acetamide]
+++ (30% ≤ Ymin < 50%) | 10 to 100 nM | CNC(=O)COc1cc2cc(Nc3nc(N4CCC(CN5CCN(c6cccc7c(C8CCC(=O)NC8=O)nn(C)c67)CC5(C)C)CC4)ncc3Cl)cnc2n(C(C)C)c1=O (centres unmarked) [Compound 200, 2-[[6-[[5-chloro-2-[4-[[4-[3-(2,6-dioxo-3-piperidyl)-1-methyl-indazol-7-yl]-2,2-dimethyl-piperazin-1-yl]methyl]-1-piperidyl]pyrimidin-4-yl]amino]-1-isopropyl-2-oxo-1,8-naphthyridin-3-yl]oxy]-N-methyl-acetamide]
